Legend:
[1] = test system: mitochondrial transcription (7S RNA) in HeLa cells; assay: Quantitative real time-PCR assay of inhibition of mitochondrial transcription (7S RNA) in HeLa cells; assay type: cell-based; settings: Homo sapiens, 4 h compound incubation, according to Example 5, read-out: cellular qPCR assay
Procedure: Quantitative real-time PCR (qRT-PCR), based on the TaqMan™ (Thermo Fisher Scientific, Waltham Mass.) technology, was carried out essentially as described in Held et al. (1996). HeLa cells were plated one day before compound treatment in RPMI medium supplemented with 10% Fetal Calf Serum and 2 mM L-glutamine. Cells were incubated with dilution series of compounds or vehicle (DMSO) for 4 h, prior to harvest and extraction of the RNA using the RNeasy Mini Kit (Qiagen, Hilden D), according to the manufacturer's instructions. RNA concentrations were measured spectroscopically, using a NanoDrop-2000 (Thermo Fisher Scientific, Waltham Mass.) and normalized prior to cDNA synthesis, using a ‘High-Capacity cDNA Reverse Transcription Kit’ (Thermo Fisher Scientific, Waltham Mass.). qRT-PCR was carried out using the ‘TaqMan Fast Advance Master Mix’ (Thermo Fisher Scientific, Waltham Mass.) on a 7500 Fast Real-Time PCR machine (Applied Biosystems, Foster City Calif.)
For these measurements, three genes were used to compare the effect of the scrutinized compounds in relation to their concentration. The POLRMT-gene was used to detect potential influences on nuclear transcription. Mitochondrial transcription in vivo was monitored by measurements 7S RNA. The TBP (TATA-box binding protein) gene was employed as the control (housekeeping gene) during qRT-PCR. The short-lived mitochondrial 7S RNA, which is not post-transcriptionally stabilized, allowed us to monitor rapid changes in mitochondrial transcription activity following compound addition. Biological triplicates were analyzed using the comparative CT Method (ΔΔCt) method (Bubner and Baldwin, 2004) and reported as Rq % values (Rq=Relative quantification=2−ΔΔCt).

[2] = target: mitochondrial RNA polymerase (POLRMT) (Mus musculus, UniProt Q8BKF1); assay: Homogeneous TR-FRET assay for mitochondrial transcription activity; assay type: biochemical; settings: homogeneous TR-FRET assay according to Example 4
Sequence of mitochondrial RNA polymerase (POLRMT) (Q8BKF1 42-1207): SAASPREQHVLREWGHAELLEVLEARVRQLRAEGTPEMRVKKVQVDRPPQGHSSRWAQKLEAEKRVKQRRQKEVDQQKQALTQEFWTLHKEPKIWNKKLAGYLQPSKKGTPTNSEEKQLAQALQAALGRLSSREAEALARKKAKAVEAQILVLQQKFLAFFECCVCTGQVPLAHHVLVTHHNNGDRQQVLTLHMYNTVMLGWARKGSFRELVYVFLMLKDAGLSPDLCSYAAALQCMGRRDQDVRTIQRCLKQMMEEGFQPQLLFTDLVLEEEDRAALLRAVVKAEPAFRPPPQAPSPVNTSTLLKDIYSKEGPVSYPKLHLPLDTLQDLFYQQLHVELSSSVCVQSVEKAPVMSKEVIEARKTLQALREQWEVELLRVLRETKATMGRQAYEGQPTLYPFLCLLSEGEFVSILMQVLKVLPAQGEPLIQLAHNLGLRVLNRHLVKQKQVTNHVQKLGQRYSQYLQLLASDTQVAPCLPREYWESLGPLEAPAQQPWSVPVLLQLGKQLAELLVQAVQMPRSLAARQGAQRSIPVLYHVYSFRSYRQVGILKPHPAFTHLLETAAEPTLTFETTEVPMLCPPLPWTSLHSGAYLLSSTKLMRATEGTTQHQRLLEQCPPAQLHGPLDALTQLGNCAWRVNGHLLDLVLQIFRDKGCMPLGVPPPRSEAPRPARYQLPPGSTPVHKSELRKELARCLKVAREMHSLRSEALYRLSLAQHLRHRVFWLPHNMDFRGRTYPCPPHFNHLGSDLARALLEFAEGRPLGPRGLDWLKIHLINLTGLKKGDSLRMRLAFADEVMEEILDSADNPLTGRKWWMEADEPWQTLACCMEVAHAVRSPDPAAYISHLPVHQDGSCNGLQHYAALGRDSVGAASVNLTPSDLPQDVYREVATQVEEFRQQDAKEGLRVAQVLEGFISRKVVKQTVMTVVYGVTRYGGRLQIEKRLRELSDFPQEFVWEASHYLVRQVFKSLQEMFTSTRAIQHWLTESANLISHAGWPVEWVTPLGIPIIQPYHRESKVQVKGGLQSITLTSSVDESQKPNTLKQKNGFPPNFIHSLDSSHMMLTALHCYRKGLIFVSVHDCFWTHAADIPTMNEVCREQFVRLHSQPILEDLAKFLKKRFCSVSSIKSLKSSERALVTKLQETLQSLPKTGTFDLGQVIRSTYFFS
Method in brief: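 Read-out is TR-FRET (ex 340, em 665 nm) from two adjacent labelled DNA probes annealing to the 407 bp transcript after EDTA/700 mM NaCl stop. Reaction: murine POLRMT, TFAM, TFB2M and LSP plasmid template, compound 10 μM or serial dilution, 10 min rt preincubation, 500 μM each nucleotide, 2 h rt.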

| IC50 [1] [nM] | IC50 [2] [nM] | Compound |
| --- | --- | --- |
| 50 to 500 | < 20 | CCOC(=O)C[C@H]1CCCN(C(=O)[C@@H](C)Oc2ccc3c(-c4ccccc4C)ccnc3c2)C1 [Compound 8, ethyl 2-[(3R)-1-[(2R)-2-[[4-(o-tolyl)-7-quinolyl]oxy]propanoyl]-3-piperidyl]acetate] |
| 500 to 5000 | 1000 to 10000 | C[C@@H](Oc1ccc2c(-c3ccccc3Cl)cc(Cl)nc2c1)C(=O)N1CCCCC1 [Compound 99, (2R)-2-[[2-chloro-4-(2-chlorophenyl)-7-quinolyl]oxy]-1-(1-piperidyl)propan-1-one] |
| 50 to 500 | 20 to 100 | C[C@@H](Oc1ccc2c(-c3ccc(F)cc3Cl)ccnc2c1)C(=O)N1CCC[C@@H](C(=O)O)C1 [Compound 17, (3R)-1-[(2R)-2-[[4-(2-chloro-4-fluoro-phenyl)-7-quinolyl]oxy]propanoyl]piperidine-3-carboxylic acid] |
| < 10 | < 20 | Cc1ccccc1-c1ccnc2cc(O[C@H](C)C(=O)N3CCC[C@H](C(=O)O)C3)ccc12 [Compound 1, (3S)-1-[(2R)-2-[[4-(o-tolyl)-7-quinolyl]oxy]propanoyl]piperidine-3-carboxylic acid] |
| < 10 | < 20 | Cc1cc(F)cc(C)c1-c1ccnc2cc(O[C@H](C)C(=O)N3CCCC(C(C)(C)C(=O)O)C3)ccc12 (mixture of isomers) [Compound 186, 2-methyl-2-[1-[rac-(2R)-2-[[4-(4-fluoro-2,6-dimethyl-phenyl)-7-quinolyl]oxy]propanoyl]-3-piperidyl]propanoic acid] |
| 50 to 500 | 100 to 1000 | C[C@@H](Oc1ccc2c(-c3ccc(F)cc3Cl)ccnc2c1)C(=O)N1CC[C@@H](CC(=O)O)C1 [Compound 39, 2-[(3S)-1-[(2R)-2-[[4-(2-chloro-4-fluoro-phenyl)-7-quinolyl]oxy]propanoyl]pyrrolidin-3-yl]acetic acid] |
| < 10 | < 20 | C[C@@H](Oc1ccc2c(-c3c(Cl)cccc3Cl)ccnc2c1)C(=O)N1CCC[C@H](C(=O)O)C1 [Compound 129, (3S)-1-[(2R)-2-[[4-(2,6-dichlorophenyl)-7-quinolyl]oxy]propanoyl]piperidine-3-carboxylic acid] |
| 10 to 50 | 20 to 100 | C[C@@H](Oc1ccc2c(-c3ccc(F)cc3Cl)ccnc2c1)C(=O)N1CCCCC1 [Compound 20, (2R)-2[[4-(2-chloro-4-fluoro-phenyl)-7-quinolyl]oxy]-1-(1-piperidyl)propan-1-one] |
| < 10 | < 20 | Cc1cc(F)cc(C)c1-c1ccnc2cc(O[C@H](C)C(=O)N3CCCC4(CC4C(=O)O)C3)ccc12 (mixture of isomers) [Compound 174, 5-[rac-(2R)-2-[[4-(4-fluoro-2,6-dimethyl-phenyl)-7-quinolyl]oxy]propanoyl]-5-azaspiro[2.5]octane-2-carboxylic acid] |
| < 10 | < 20 | Cc1cc(F)cc(C)c1-c1ccnc2cc(O[C@H](C)C(=O)N3CCC[C@@](C)(C(=O)O)C3)ccc12 [Compound 175, (3R)-1-[(2R)-2-[[4-(4-fluoro-2,6-dimethyl-phenyl)-7-quinolyl]oxy]propanoyl]-3-methyl-piperidine-3-carboxylic acid] |
| 500 to 5000 | 1000 to 10000 | Cc1cc(-c2ccc(F)cc2Cl)c2ccc(O[C@H](C)C(=O)N3CCC[C@H](CC(=O)O)C3)cc2n1 [Compound 101, 2-[(3R)-1-[(2R)-2-[[4-(2-chloro-4-fluoro-phenyl)-2-methyl-7-quinolyl]oxy]propanoyl]-3-piperidyl]acetic acid] |
| < 10 | < 20 | C[C@@H](Oc1ccc2c(-c3ccccc3Cl)ccnc2c1)C(=O)N1CCC[C@H](C(=O)O)C1 [Compound 9, (3S)-1-[(2R)-2-[[4-(2-chlorophenyl)-7-quinolyl]oxy]propanoyl]piperidine-3-carboxylic acid] |
| 10 to 50 | 100 to 1000 | C[C@@H](Oc1ccc2c(-c3c(Cl)cc(F)cc3Cl)ccnc2c1)C(=O)N1CCC2(CC1)COC2 [Compound 208, (2R)-2-[[4-(2,6-dichloro-4-fluoro-phenyl)-7-quinolyl]oxy]-1-(2-oxa-7-azaspiro[3.5]nonan-7-yl)propan-1-one] |
| 10 to 50 | 100 to 1000 | C[C@@H]1CCCCN1C(=O)[C@@H](C)Oc1ccc2c(-c3c(Cl)cc(F)cc3Cl)ccnc2c1 [Compound 204, (2R)-2-[[4-(2,6-dichloro-4-fluoro-phenyl)-7-quinolyl]oxy]-1-[(2R)-2-methyl-1-piperidyl]propan-1-one] |
| 10 to 50 | 100 to 1000 | Cc1cc(-c2ccccc2C)c2ccc(O[C@H](C)C(=O)N3CCC[C@H](CC(=O)O)C3)cc2n1 [Compound 69, 2-[(3R)-1-[(2R)-2-[[2-methyl-4-(o-tolyl)-7-quinolyl]oxy]propanoyl]-3-piperidyl]acetic acid] |
| 500 to 5000 | 20 to 100 | Cc1ccccc1-c1cc(Cl)nc2cc(O[C@H](C)C(=O)N3CCC[C@H](CC(=O)O)C3)ccc12 [Compound 21, 2-[(3R)-1-[(2R)-2-[[2-chloro-4-(o-tolyl)-7-quinolyl]oxy]propanoyl]-3-piperidyl]acetic acid] |
| 50 to 500 | 20 to 100 | C[C@@H](Oc1ccc2c(-c3ccc(F)cc3Cl)ccnc2c1)C(=O)N1CCC[C@H](CC(=O)O)C1 [Compound 18, 2-((R)-1-((R)-2-((4-(2-chloro-4-fluorophenyl)quinolin-7-yl)oxy)propanoyl)piperidin-3-yl)acetic acid] |
| 500 to 5000 | 1000 to 10000 | C[C@@H](Oc1ccc2c(-c3ccccc3Cl)cc(Cl)nc2c1)C(=O)N1CCC[C@H](CC(=O)O)C1 [Compound 83, 2-[(3R)-1-[(2R)-2-[[2-chloro-4-(2-chlorophenyl)-7-quinolyl]oxy]propanoyl]-3-piperidyl]acetic acid] |
| 50 to 500 | 100 to 1000 | Cc1sccc1-c1ccnc2cc(O[C@H](C)C(=O)N3CCC[C@H](CC(=O)O)C3)ccc12 [Compound 79, 2-[(3R)-1-[(2R)-2-[[4-(2-methyl-3-thienyl)-7-quinolyl]oxy]propanoyl]-3-piperidyl]acetic acid] |
| 10 to 50 | 100 to 1000 | C[C@@H](Oc1ccc2c(-c3ccc(F)cc3Cl)ccnc2n1)C(=O)N1CCC[C@H](C(=O)O)C1 [Compound 126, (3S)-1-[(2R)-2-[[5-(2-chloro-4-fluoro-phenyl)-1,8-naphthyridin-2-yl]oxy]propanoyl]piperidine-3-carboxylic acid] |
| < 10 | < 20 | Cc1cccc(C)c1-c1ccnc2cc(O[C@H](C)C(=O)N3CCC[C@H](CC(=O)O)C3)ccc12 [Compound 3, 2-[(3R)-1-[(2R)-2-[[4-(2,6-dimethylphenyl)-7-quinolyl]oxy]propanoyl]-3-piperidyl]acetic acid] |
| 500 to 5000 | 100 to 1000 | C[C@@H](Oc1ccc2c(-c3ccccc3Cl)cc(Cl)nc2c1)C(=O)N1CCN(C(=O)C2CC2)CC1 [Compound 70, (2R)-2-[[2-chloro-4-(2-chlorophenyl)-7-quinolyl]oxy]-1-[4-(cyclopropanecarbonyl)piperazin-1-yl]propan-1-one] |
| < 10 | < 20 | Cc1cc(F)cc(C)c1-c1ccnc2cc(O[C@H](C)C(=O)N3CCCC(C4(O)CC4)C3)ccc12 (mixture of isomers) [Compound 180, rac-(2R)-2-[[4-(4-fluoro-2,6-dimethyl-phenyl)-7-quinolyl]oxy]-1-[3-(1-hydroxycyclopropyl)-1-piperidyl]propan-1-one] |
| 10 to 50 | 20 to 100 | C[C@@H](Oc1ccc2c(-c3c(Cl)cc(F)cc3Cl)ccnc2c1)C(=O)N1CCCC(C2(C(=O)O)CC2)C1 (mixture of isomers) [Compound 196, 1-[1-[rac-(2R)-2-[[4-(2,6-dichloro-4-fluoro-phenyl)-7-quinolyl]oxy]propanoyl]-3-piperidyl]cyclopropanecarboxylic acid] |
| 50 to 500 | 100 to 1000 | Cc1cc(-c2c(C)cccc2C)c2ccc(O[C@H](C)C(=O)N3CCC[C@H](S(N)(=O)=O)C3)cc2n1 [Compound 113, (3S)-1-[(2R)-2-[[4-(2,6-dimethylphenyl)-2-methyl-7-quinolyl]oxy]propanoyl]piperidine-3-sulfonamide] |
| 10 to 50 | < 20 | C[C@@H](Oc1ccc2c(-c3c(Cl)cccc3Cl)ccnc2c1)C(=O)N1CCC[C@H](CC(=O)O)C1 [Compound 120, 2-[(3R)-1-[(2R)-2-[[4-(2,6-dichlorophenyl)-7-quinolyl]oxy]propanoyl]-3-piperidyl]acetic acid] |
| 50 to 500 | 100 to 1000 | CCOC(=O)C[C@H]1CCCN(C(=O)[C@@H](C)Oc2ccc3c(-c4ccc(F)cc4Cl)cc(C)nc3c2)C1 [Compound 74, ethyl 2-[(3R)-1-[(2R)-2-[[4-(2-chloro-4-fluoro-phenyl)-2-methyl-7-quinolyl]oxy]propanoyl]-3-piperidyl]acetate] |

Reference: US12281079B2, “Quinoline derivatives, processes for their preparation and uses thereof for the treatment of cancer” (Lead Discovery Center GmbH, priority 2019, dated 2025)
